Values quoted from earlier work, collected in US20100035978A1, “COMBINATION OF CANNABINOIDS FOR THE TREATMENT OF PERIPHERAL NEUROPATHIC PAIN” (GW Pharma Limited, priority 2005, published 2010).

Test system: patients taking carbamezepine

## NC(=O)N1c2ccccc2C=Cc2ccccc21 [carbamezepine]
post-marketing studies
  increase in the risk of blood dyscrasias: five- to eight-fold
Usually reverses within the first 4 months of therapy
  patients with a 25% decrease in white blood cell count: 7%
